Measured values published in PubChem BioAssay (NCI).
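Five compound concentrations were applied to cells in 96-well plates for 48 hours; endpoints were derived by simple linear interpolation of the resulting dose-response curve. TGI: concentration producing complete growth inhibition.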

Key:
Experiment in all cases: NCI tumour cell line growth inhibition, 48 h
[1] = tested on: SK-OV-3 ovarian
[2] = tested on: MALME-3M melanoma
[3] = tested on: A549 NSCLC
[4] = tested on: NCI/ADR-RES ovarian
[5] = tested on: OVCAR-4 ovarian
[6] = tested on: UACC-62 melanoma
[7] = tested on: T-47D breast
[8] = tested on: HCT-116 colon
[9] = tested on: CCRF-CEM leukemia
[10] = tested on: SNB-75 CNS
[11] = tested on: UO-31 renal
[12] = tested on: MOLT-4 leukemia
[13] = tested on: COLO 205 colon
[14] = tested on: HOP-62 NSCLC
[15] = tested on: NCI-H460 lung
[16] = tested on: SF-268 CNS
[17] = tested on: NCI-H23 lung
[18] = tested on: CAKI-1 renal
[19] = tested on: 786-0 renal
[20] = tested on: RXF 393 renal
[21] = tested on: TK-10 renal
[22] = tested on: EKVX NSCLC
[23] = tested on: SN12C renal
[24] = tested on: K-562 leukemia
[25] = tested on: MDA-MB-231 breast
[26] = tested on: A498 renal
[27] = tested on: PC-3 prostate
[28] = tested on: SK-MEL-5 melanoma
[29] = tested on: NCI-H522 lung
[30] = tested on: ACHN renal
[31] = tested on: MDA-MB-435
[32] = tested on: HCT-15 colon
[33] = tested on: NCI-H226 lung
[34] = tested on: U251 CNS
[35] = tested on: SF-539 CNS
[36] = tested on: HCC-2998 colon
[37] = tested on: SK-MEL-2 melanoma
[38] = tested on: BT-549 breast
[39] = tested on: M14 melanoma
[40] = tested on: RPMI-8226 leukemia
[41] = tested on: LOX IMVI melanoma
[42] = tested on: SF-295 CNS
[43] = tested on: OVCAR-3 ovarian
[44] = tested on: HL-60(TB) leukemia
[45] = tested on: MDA-N
[46] = tested on: HT29 colon
[47] = tested on: KM12 colon
[48] = tested on: SK-MEL-28 melanoma
[49] = tested on: SW-620 colon
[50] = tested on: HS 578T breast
[51] = tested on: MCF7 breast
[52] = tested on: SR leukemia
[53] = tested on: SNB-19 CNS
[54] = tested on: IGROV1 ovarian
[55] = tested on: OVCAR-8 ovarian
[56] = tested on: OVCAR-5 ovarian
[57] = tested on: DU-145 prostate
[58] = tested on: UACC-257 melanoma
[59] = tested on: HOP-92 NSCLC

Compound: O[C@H]1[C@H]2c3cc4c(cc3CN3CCC(=C[C@@H]1O)[C@H]23)OCO4
- TGI [1]: 20.5 µM
- TGI [2]: 10.7 µM
- TGI [3]: 13.1 µM
- TGI [4]: 10.7 µM
- TGI [5]: 8.4 µM
- TGI [6]: 7.95 µM
- TGI [7]: > 21.3 µM
- TGI [8]: > 100 µM
- TGI [9]: 7.51 µM
- TGI [10]: 24.9 µM
- TGI [11]: 4.77 µM
- TGI [12]: 4.65 µM
- TGI [13]: 2.79 µM
- TGI [14]: > 27.4 µM
- TGI [15]: 5.88 µM
- TGI [16]: 3.57 µM
- TGI [17]: 13.7 µM
- TGI [18]: 4.34 µM
- TGI [19]: > 34 µM
- TGI [20]: 2.6 µM
- TGI [21]: 11.9 µM
- TGI [22]: 10.8 µM
- TGI [23]: 9.5 µM
- TGI [24]: 12 µM
- TGI [25]: 10.2 µM
- TGI [26]: 12.8 µM
- TGI [27]: 5.34 µM
- TGI [28]: 6.91 µM
- TGI [29]: 3.07 µM
- TGI [30]: 7.07 µM
- TGI [31]: 7.87 µM
- TGI [32]: 5.32 µM
- TGI [33]: 29.6 µM
- TGI [34]: > 26.7 µM
- TGI [35]: 5.74 µM
- TGI [36]: 8.84 µM
- TGI [37]: 2.12 µM
- TGI [38]: 5.43 µM
- TGI [39]: 8.2 µM
- TGI [40]: 5.03 µM
- TGI [41]: 5.06 µM
- TGI [42]: > 68.8 µM
- TGI [43]: 11.9 µM
- TGI [44]: 6.37 µM
- TGI [45]: 26.7 µM
- TGI [46]: 30.6 µM
- TGI [47]: 22.4 µM
- TGI [48]: 22.6 µM
- TGI [49]: > 36.9 µM
- TGI [50]: > 28.4 µM
- TGI [51]: 1.71 µM
- TGI [52]: 4.24 µM
- TGI [53]: 14.9 µM
- TGI [54]: 0.874 µM
- TGI [55]: 7.55 µM
- TGI [56]: 22 µM

Compound: O=C(O)c1cc(C(=O)O)cc(N2C(=O)c3ccccc3C2=O)c1
- TGI [1]: > 100 µM
- TGI [2]: > 100 µM
- TGI [3]: > 100 µM
- TGI [4]: > 100 µM
- TGI [5]: > 100 µM
- TGI [6]: > 100 µM
- TGI [7]: > 100 µM
- TGI [8]: > 100 µM
- TGI [10]: > 100 µM
- TGI [11]: > 100 µM
- TGI [13]: > 100 µM
- TGI [14]: > 100 µM
- TGI [15]: > 100 µM
- TGI [16]: > 100 µM
- TGI [17]: > 100 µM
- TGI [18]: > 100 µM
- TGI [19]: > 100 µM
- TGI [20]: > 100 µM
- TGI [21]: > 100 µM
- TGI [22]: > 100 µM
- TGI [23]: > 100 µM
- TGI [57]: > 100 µM
- TGI [24]: > 100 µM
- TGI [25]: > 100 µM
- TGI [26]: > 100 µM
- TGI [27]: > 100 µM
- TGI [28]: > 100 µM
- TGI [29]: > 100 µM
- TGI [30]: > 100 µM
- TGI [31]: > 100 µM
- TGI [32]: > 100 µM
- TGI [33]: > 100 µM
- TGI [34]: > 100 µM
- TGI [35]: > 100 µM
- TGI [36]: > 100 µM
- TGI [37]: > 100 µM
- TGI [38]: > 100 µM
- TGI [39]: > 100 µM
- TGI [40]: > 100 µM
- TGI [41]: > 100 µM
- TGI [42]: > 100 µM
- TGI [43]: > 100 µM
- TGI [44]: > 100 µM
- TGI [45]: > 100 µM
- TGI [46]: > 100 µM
- TGI [58]: > 100 µM
- TGI [47]: > 100 µM
- TGI [48]: > 100 µM
- TGI [49]: > 100 µM
- TGI [50]: > 100 µM
- TGI [51]: > 100 µM
- TGI [52]: > 100 µM
- TGI [59]: > 100 µM
- TGI [53]: > 100 µM
- TGI [54]: > 100 µM
- TGI [55]: > 100 µM
- TGI [56]: > 100 µM

Compound: CN(C)CCNc1ccc([N+](=O)[O-])c2sc3ccccc3c(=O)c12
- TGI [1]: > 100 µM
- TGI [2]: 17.9 µM
- TGI [3]: 20.2 µM
- TGI [4]: 54.2 µM
- TGI [5]: 9.27 µM
- TGI [6]: 16.8 µM
- TGI [7]: > 100 µM
- TGI [8]: 11.3 µM
- TGI [9]: > 100 µM
- TGI [10]: 35.6 µM
- TGI [11]: 30.8 µM
- TGI [12]: > 100 µM
- TGI [13]: 14.3 µM
- TGI [14]: 8.36 µM
- TGI [15]: 7.49 µM
- TGI [16]: 48.8 µM
- TGI [17]: 29.5 µM
- TGI [19]: 20.8 µM
- TGI [20]: 38.1 µM
- TGI [21]: > 100 µM
- TGI [22]: 25.2 µM
- TGI [23]: > 100 µM
- TGI [57]: 31.5 µM
- TGI [24]: > 100 µM
- TGI [25]: 9.39 µM
- TGI [27]: 21.6 µM
- TGI [28]: 20.6 µM
- TGI [29]: 5.15 µM
- TGI [30]: 13.2 µM
- TGI [31]: 27.4 µM
- TGI [32]: 23.6 µM
- TGI [33]: 51.2 µM
- TGI [34]: > 100 µM
- TGI [35]: 13.7 µM
- TGI [36]: 13.1 µM
- TGI [37]: 27.9 µM
- TGI [38]: 17.2 µM
- TGI [39]: 46.8 µM
- TGI [40]: 7.52 µM
- TGI [42]: > 100 µM
- TGI [43]: 32.6 µM
- TGI [44]: 12.5 µM
- TGI [45]: 21.6 µM
- TGI [46]: 32.1 µM
- TGI [58]: 19.6 µM
- TGI [47]: > 100 µM
- TGI [48]: 21.5 µM
- TGI [49]: > 100 µM
- TGI [50]: 38.8 µM
- TGI [51]: 15.2 µM
- TGI [52]: 22.9 µM
- TGI [59]: 51.2 µM
- TGI [53]: 43.2 µM
- TGI [54]: 7.66 µM
- TGI [55]: 19.9 µM
- TGI [56]: 14.6 µM

Compound: NC(=O)c1ccc(C(=O)Nc2ccc([As](=O)(O)O)cc2)cc1
- TGI [1]: > 100 µM
- TGI [2]: > 100 µM
- TGI [3]: > 100 µM
- TGI [4]: > 100 µM
- TGI [5]: > 100 µM
- TGI [6]: > 100 µM
- TGI [7]: > 100 µM
- TGI [8]: > 100 µM
- TGI [9]: > 100 µM
- TGI [10]: > 100 µM
- TGI [11]: > 100 µM
- TGI [12]: > 100 µM
- TGI [13]: > 100 µM
- TGI [14]: > 100 µM
- TGI [15]: > 100 µM
- TGI [16]: > 100 µM
- TGI [17]: > 100 µM
- TGI [18]: > 100 µM
- TGI [19]: > 100 µM
- TGI [20]: > 100 µM
- TGI [21]: > 100 µM
- TGI [22]: > 100 µM
- TGI [23]: > 100 µM
- TGI [57]: > 100 µM
- TGI [24]: > 100 µM
- TGI [25]: > 100 µM
- TGI [26]: > 100 µM
- TGI [27]: > 100 µM
- TGI [28]: > 100 µM
- TGI [29]: > 100 µM
- TGI [30]: > 100 µM
- TGI [31]: > 100 µM
- TGI [32]: > 100 µM
- TGI [33]: > 100 µM
- TGI [34]: > 100 µM
- TGI [37]: > 100 µM
- TGI [38]: > 100 µM
- TGI [39]: > 100 µM
- TGI [40]: > 100 µM
- TGI [41]: > 100 µM
- TGI [42]: > 100 µM
- TGI [43]: > 100 µM
- TGI [44]: > 100 µM
- TGI [45]: > 100 µM
- TGI [46]: > 100 µM
- TGI [47]: > 100 µM
- TGI [48]: > 100 µM
- TGI [49]: > 100 µM
- TGI [50]: > 100 µM
- TGI [51]: > 100 µM
- TGI [59]: > 100 µM
- TGI [53]: > 100 µM
- TGI [54]: > 100 µM
- TGI [55]: > 100 µM
- TGI [56]: > 100 µM
